A short description of this assay: Inhibition of purified Triticum aestivum (wheat) germ imidazole glycerol phosphate dehydratase.

In general, IC50 refers to the midpoint of a concentration-inhibition curve. Lower therefore signals greater potency in that assay. The molecule `O[C@@]1(c2nc[nH]n2)CCC[C@H](P(O)(O)=P)C1` came in with an IC50 of 1800 nM.
`O=P(O)(O)[C@@H]1CCC[C@@](O)(c2nc[nH]n2)C1` (relative stereo): 10000 nM corresponded to half-maximal inhibition (IC50).
Turning to `O=P(O)(O)[C@@H]1CCC[C@](O)(c2nc[nH]n2)C1`, the IC50 amounted to 18 nM.
The same measure for `O=P(O)(O)[C@@H]1CCC[C@](O)(c2nc[nH]n2)C1` (relative stereo): 40 nM; for `O=P(O)(O)[C@H]1C[C@@](O)(c2nc[nH]n2)C1`: 270000 nM.

Values taken from ChEMBL document CHEMBL3046514, “Synthesis of novel cyclobutylphosphonic acids as inhibitors of imidazole glycerol phosphate dehydratase” (Tetrahedron, 1997).
